Assay results reported in patent US7683055B2, “Lanthionine-related compounds for the treatment of inflammatory diseases” (Oklahoma Medical Research Foundation, priority 2006, dated 2010).

What was measured:
HT4 cells = experiment: glutamate toxicity in HT4 cells (LDH leakage); format: cell-based
Procedure: (§1) FIG. 13. (R)-LK protects HT4 cells against excitotoxicity. Determination of cell viability: HT4 cells were seeded in 6 well plates (1×10^7 cell/well). After 24 h, cell media was changed and (R)-LK (in DMSO) was used for 1 h prior to glutamate challenge. Powdered (R)-LK was dissolved in DMSO just before use. The viability of cells in culture was assessed by measuring the leakage of lactate dehydrogenase (LDH) from cells to media 18-24 h following glutamate treatment using the in vitro toxicology assay kit from Sigma Chemical Co. (St. Louis, Mo., USA). LDH leakage was determined using the following equation: % of total LDH leaked=(LDH activity in the cell culture media/total LDH activity) where total LDH activity=LDH activity in cell monolayer+LDH activity of detached cells+LDH activity in the cell culture media.
as §1, with “14. (R)-LKE1” for “13. (R)-LK”, “Determination of cell viability: HT4 cells were seeded in 6 well plates (1×10^7 cell/well). After 24 h, cell media was changed and (R)-LK (in DMSO) was used for 1 h prior to glutamate challenge. Powdered (R)-LK was dissolved in DMSO just before use.” left out, “media. […]” for “media.”

human PB monocytes = experiment: intracellular TNFα in human peripheral blood monocytes by flow cytometry; format: cell-based
Text: Identification of TNFα positive monocytes in peripheral blood by flow cytometry: PB monocytes expressing TNF in response to LPS or PG can be identified and counted using flow cytometry with fluorescent antibodies to stain TNFα. To identify the percentage of monocytes expressing TNFα, PB was stimulated with LPS or PG, stained for surface markers to distinguish monocytes from other leukocytes, and stained for intracellular TNFα to identify monocytes expressing TNFα. The percentage of monocytes positive for TNFα was compared among samples stimulated with LPS, PG, with and without pretreatment with (R)-LKE1, and non-stimulated samples.
The fluorescent antibodies used to identify monocytes surface markers were anti-human CD14-phycoerythrin (PE) and andtiCD16b-fluorescein isothyocyanate (FITC), based on staining intensity for each marker. Monocytes are positive for CD14 and negative for CD16b. This method of separating monocytes from neutrophils was confirmed by sorting cells based on CD14/CD16b intensity, preparing slides, staining with May-Grunwald Giemsa and confirming by morphology.
For analysis of CD14 positive, CD16b negative cells we used dot plots. We first excluded lymphocytes from the analysis by their forward scatter (FSC) and side scatter (SSC) properties, drawing a monocyte/neutrophil gate to exclude lymphocytes (not shown). We then identified CD14+, (y-axis) CD16b− (x-axis) cells by comparison with an unstained sample.
A third dye, PE-Cye7 was used for intracellular cytokine staining of TNFα. The TNFα positive monocytes were identified on a second dot plot of SSC vs. TNFα PE-Cye7 for monocytes only. Cells were counted as positive for TNFα expression if the intensity of PE-Cye7 was greater than in the non-stimulated control. The percent of TNFα positive monocytes was calculated using number positive/total number of monocytes.
PB, heparinized, was diluted 1:3 with DMEM. Diluted blood was placed in 1.0 ml aliquots into wells of a non tissue culture plate. PB was pre-incubated at 37° C. for one hour with LKE (1 mM) or the diluent DMSO (10 μl). […]

SMILES: CCOC(=O)[C@@H]1CSCC(C(=O)O)=N1 [(R)-LKE1]
- glutamate toxicity (LDH release) (HT4 cells): significantly diminished glutamate toxicity
- percent monocytes staining positively for TNFα (human PB monocytes; 1 mM pre-incubation, PG 10 ug/ml): 0.76%
- percent monocytes staining positively for TNFα (human PB monocytes; 1 mM pre-incubation, Ultra Pure LPS 1 μg/ml): 25.9%
- percent monocytes staining positively for TNFα (human PB monocytes; 1 mM, no stimulus): 0.96%
